In patent publication US20230159556A1, “NOVEL PROTEIN KINASE INHIBITORS” (TENOVA PHARMACEUTICALS INC., priority 2020, published 2023):
Read-outs that look alike come from different tables or passages of the source. Blank lines part the entries; values can stand above or below the compound they belong to.

Experiments:
EGFR_L858R/T790M/C797S = target: T1, EGFR_L858R/T790M/C797S (Homo sapiens, UniProt P00533, C797S/L858R/T790M); assay: In vitro biochemical kinase assay (33P-ATP filter-binding, Reaction Biology)
T1 construct: Reaction Biology Corporation (contract assay provider)
Method: (§1) The biochemical kinase assay was performed at Reaction Biology Corporation (www.reactionbiology.com, Malvern, Pa.) following procedures described in the reference (Anastassiadis, T, et al, Nature Biotechnology, 2011, 29, 1039). Base Reaction buffer includes 20 mM Hepes (pH 7.5), 10 mM MgCl2, 1 mM EGTA, 0.02% Brij35, 0.02 mg/ml BSA, 0.1 mM Na3VO4, 2 mM DTT and 1% DMSO. Required cofactors are added individually to each kinase reaction. Testing compounds were dissolved in 100% DMSO to specific concentration. The serial dilution was conducted by Integra Viaflo Assist in DMSO. Compounds in 100% DMSO are into the kinase reaction mixture by Acoustic technology (Echo550; nanoliter range), incubate for 20 min at room temperature, followed by ^33P-ATP and incubation for 2 hours at room temperature. Radioactivity was then detected by filter-binding method. Kinase activity data were expressed as the percent remaining kinase activity in test samples compared to vehicle (dimethyl sulfoxide) reactions. IC50 values and curve fits were obtained using Prism (GraphPad Software).

EGFR_WT = target: T2, EGFR_WT (Homo sapiens, UniProt P00533); assay: as above
T2 construct: Reaction Biology Corporation (contract assay provider)
Method: as §1

[1] = target: Ba/F3_EGFR_del19/T790M/C797S cell (Homo sapiens, UniProt P00533, T790M/C797S, cells depend on it, form not given); assay: BaF3 cell proliferation assay (CelltiterGlo, 72 hr); assay type: cell-based; conditions: 72 hr incubation; read-out: IC50 (nM, Ba/F3_EGFR_del19/T790M/C797S cell proliferation)
Method: (§2) The BaF3 cell proliferation assay was performed at Pharmaron (www.pharmaron.com, Beijing, China). The Ba/F3_WT and Ba/F3_Del19/T790M/C797S cell lines were maintained in 1640 medium containing 10% FBS, 1*PS and 1*Glutamax. Only cells with viability greater than 90% are used for assays. Dispense 30 μl of cell suspension at 700/well into 384 well microplate, add 30 nl compound solution into 384 cell plate by Echo, cells were incubated for 72 hr in 37° C./5% CO2 incubator, add 30 μl reagent CelltiterGlo assay kit (CTG, Promega) per well and shake plates, incubate the plate (avoiding light) at 37° C./5% CO2 for 30 min. and read the luminescence by Envision. The luminescence values were converted to % Inhibition. Calculate IC50 by fitting % inhibition values and log of compound concentrations to nonlinear regression (dose response−variable slope) with Graphpad 5.0.
(§3) Y=Bottom+(Top−Bottom)/(1+10^((Log IC50−X)*HillSlope))
(§4) X: log of inhibitor concentration; Y: % Inhibition.

Ba/F3_WT cell = assay: as above; assay type: cell-based; conditions: Mus musculus, 72 hr incubation
Method: as §2, §3, §4

[2] = ether bond, 25.0 °C, 16.0 h
[3] = ether bond
[4] = test system: BaF3-EGFR-Del19/T790M/C797S cells; assay: In vivo Cell Transplant Xenograft (CTX) model; design: species or system BALB/c nude mice; conditions: for tumor growth inhibition rate TGITV (%): end of the experiment
Method: The pharmacological experiments in vivo were performed on BALB/c nude mice that subcutaneously implanted BaF3-EGFR-Del19/T790M/C797S cells. BALB/c nude mice, female, 6-8 weeks, weighted about 16-19 grams, the mice were kept in a special pathogen-free environment, and in a single ventilation cage (3 mice per cage). The bedding and water of all the cages were disinfected before use. All animals were free to obtain standard certified commercial laboratory diets. The BaF3-EGFR-Del19/T790M/C797S cell (5×10^6 cells/mice) was implanted subcutaneously for tumor growth. After 10 days, the experiment was started the average tumor volume reached about 130 mm^3. The mice were divided into 4 groups with 6 mice in each group. Compound A29 was orally administered once daily continuously for 15 days at 5 mg/kg, 15 mg/kg and 45 mg/kg. The tumor volume was measured twice a week with a two-dimensional caliper and the volume was measured in cubic millimeters and calculated by the following formula: V=0.5 a×b2, where a and b were the major and minor diameters of the tumor, respectively. The tumor volume at day n is expressed as Relative Tumor Volume (RTV) and calculated according to the following formula: RTV=TVn/TV0, where TVn is the tumor volume at day n and TV0 is the tumor volume at day 0. The T/C (the ratio of tumor volume in […] mice) is determined by TIC (%)=(mean RTV of treated group)/(mean RTV of control group)×100%. The tumor growth inhibition rate TGITV (%) is calculated using the formula TGITV (%)=(1−T/C)×100%.

Chain of Ba/F3_EGFR_del19/T790M/C797S cell (P00533 with tags, fused parts or gaps DEL746-750/T790M/C797S, form open): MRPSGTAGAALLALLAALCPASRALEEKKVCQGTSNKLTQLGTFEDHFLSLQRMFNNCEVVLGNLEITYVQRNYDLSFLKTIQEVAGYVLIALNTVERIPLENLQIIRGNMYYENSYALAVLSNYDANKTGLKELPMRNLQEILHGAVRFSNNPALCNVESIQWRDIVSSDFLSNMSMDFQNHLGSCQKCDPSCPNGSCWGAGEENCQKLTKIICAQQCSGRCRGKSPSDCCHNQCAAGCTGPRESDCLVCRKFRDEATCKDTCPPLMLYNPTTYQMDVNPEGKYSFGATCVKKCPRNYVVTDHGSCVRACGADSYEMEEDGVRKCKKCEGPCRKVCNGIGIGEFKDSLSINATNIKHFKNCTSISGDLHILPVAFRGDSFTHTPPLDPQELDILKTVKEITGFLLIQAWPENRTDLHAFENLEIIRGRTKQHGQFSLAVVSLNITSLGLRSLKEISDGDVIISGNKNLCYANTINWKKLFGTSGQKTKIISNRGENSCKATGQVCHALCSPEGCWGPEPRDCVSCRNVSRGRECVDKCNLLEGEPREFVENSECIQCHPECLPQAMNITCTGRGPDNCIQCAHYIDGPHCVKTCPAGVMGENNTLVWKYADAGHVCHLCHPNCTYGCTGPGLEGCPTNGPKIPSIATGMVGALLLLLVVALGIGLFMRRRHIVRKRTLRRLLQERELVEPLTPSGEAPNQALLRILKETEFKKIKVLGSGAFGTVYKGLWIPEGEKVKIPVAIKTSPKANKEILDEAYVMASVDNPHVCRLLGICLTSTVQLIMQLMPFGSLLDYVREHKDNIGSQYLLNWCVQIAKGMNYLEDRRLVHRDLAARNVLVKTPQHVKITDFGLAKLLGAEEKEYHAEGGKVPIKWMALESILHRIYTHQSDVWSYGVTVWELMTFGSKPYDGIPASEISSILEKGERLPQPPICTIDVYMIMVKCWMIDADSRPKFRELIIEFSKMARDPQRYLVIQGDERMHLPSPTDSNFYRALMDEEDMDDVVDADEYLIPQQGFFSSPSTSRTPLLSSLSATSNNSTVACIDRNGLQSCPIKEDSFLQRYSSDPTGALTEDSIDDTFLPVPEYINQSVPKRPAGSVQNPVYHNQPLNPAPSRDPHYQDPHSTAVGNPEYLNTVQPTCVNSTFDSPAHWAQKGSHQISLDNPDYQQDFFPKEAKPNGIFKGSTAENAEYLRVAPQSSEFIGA
T2 sequence (P00533 25-1210): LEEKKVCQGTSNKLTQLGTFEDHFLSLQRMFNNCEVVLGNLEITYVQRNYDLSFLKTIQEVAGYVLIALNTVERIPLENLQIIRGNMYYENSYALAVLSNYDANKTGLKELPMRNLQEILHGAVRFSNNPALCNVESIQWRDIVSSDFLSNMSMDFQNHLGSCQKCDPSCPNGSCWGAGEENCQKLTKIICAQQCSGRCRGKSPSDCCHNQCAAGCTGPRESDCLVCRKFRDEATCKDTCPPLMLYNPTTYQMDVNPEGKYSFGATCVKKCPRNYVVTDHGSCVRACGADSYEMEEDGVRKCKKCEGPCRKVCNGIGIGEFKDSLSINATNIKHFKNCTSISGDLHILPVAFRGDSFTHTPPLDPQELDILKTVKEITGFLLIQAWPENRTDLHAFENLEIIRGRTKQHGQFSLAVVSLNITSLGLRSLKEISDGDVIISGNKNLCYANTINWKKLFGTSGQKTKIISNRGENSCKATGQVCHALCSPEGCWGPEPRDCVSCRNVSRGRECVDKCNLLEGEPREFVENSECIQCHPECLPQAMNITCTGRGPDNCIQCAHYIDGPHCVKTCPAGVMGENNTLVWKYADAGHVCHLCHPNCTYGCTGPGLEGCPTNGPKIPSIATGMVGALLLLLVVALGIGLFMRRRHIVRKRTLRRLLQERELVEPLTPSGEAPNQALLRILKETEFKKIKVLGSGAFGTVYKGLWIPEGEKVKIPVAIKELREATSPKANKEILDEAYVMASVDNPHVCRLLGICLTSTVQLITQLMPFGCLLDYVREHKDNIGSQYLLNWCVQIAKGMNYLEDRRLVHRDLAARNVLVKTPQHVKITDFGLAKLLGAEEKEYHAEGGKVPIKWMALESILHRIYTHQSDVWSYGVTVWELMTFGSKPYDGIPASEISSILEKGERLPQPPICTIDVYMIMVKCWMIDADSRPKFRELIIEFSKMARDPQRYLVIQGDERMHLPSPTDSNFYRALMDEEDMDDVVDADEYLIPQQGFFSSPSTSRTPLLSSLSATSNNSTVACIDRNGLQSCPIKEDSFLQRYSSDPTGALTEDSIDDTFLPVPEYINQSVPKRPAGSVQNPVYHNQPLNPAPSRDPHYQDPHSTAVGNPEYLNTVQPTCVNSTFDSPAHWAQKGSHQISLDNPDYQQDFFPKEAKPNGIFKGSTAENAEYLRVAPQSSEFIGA
T1 sequence (P00533 25-1210 T790M/C797S/L858R): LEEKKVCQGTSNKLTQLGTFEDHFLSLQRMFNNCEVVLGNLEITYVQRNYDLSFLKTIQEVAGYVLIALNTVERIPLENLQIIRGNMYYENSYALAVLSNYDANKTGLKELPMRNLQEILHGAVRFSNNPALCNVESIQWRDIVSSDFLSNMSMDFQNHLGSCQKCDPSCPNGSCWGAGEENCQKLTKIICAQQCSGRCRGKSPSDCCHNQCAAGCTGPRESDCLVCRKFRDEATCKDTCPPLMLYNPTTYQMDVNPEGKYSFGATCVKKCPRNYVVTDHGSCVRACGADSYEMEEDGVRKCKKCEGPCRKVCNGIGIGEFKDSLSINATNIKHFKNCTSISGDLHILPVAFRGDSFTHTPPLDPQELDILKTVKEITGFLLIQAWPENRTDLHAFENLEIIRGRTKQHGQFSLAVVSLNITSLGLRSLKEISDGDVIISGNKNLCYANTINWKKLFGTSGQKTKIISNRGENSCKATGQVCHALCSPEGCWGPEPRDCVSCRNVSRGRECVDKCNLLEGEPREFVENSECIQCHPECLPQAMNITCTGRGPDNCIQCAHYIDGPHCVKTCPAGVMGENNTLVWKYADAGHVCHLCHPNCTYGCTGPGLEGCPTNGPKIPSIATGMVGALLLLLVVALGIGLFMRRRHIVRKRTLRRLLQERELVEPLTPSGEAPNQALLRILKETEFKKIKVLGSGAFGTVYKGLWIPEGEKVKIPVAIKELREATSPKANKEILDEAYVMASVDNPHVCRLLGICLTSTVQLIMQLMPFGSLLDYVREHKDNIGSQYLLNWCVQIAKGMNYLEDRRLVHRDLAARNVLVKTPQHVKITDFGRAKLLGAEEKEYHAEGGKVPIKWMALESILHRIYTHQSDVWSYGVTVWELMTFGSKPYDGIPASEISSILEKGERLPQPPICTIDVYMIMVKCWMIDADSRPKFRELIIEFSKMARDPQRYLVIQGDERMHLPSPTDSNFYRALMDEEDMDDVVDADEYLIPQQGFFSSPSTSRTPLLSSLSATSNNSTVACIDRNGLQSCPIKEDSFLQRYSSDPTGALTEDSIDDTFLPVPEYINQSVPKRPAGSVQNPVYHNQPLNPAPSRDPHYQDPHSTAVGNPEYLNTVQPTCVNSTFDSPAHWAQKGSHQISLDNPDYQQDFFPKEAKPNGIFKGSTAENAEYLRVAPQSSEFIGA

Structure (SMILES): COc1cc(N2CCN(C)CC2)c2cc1Nc1ncc(Cl)c(n1)Nc1ccc(cc1S(C)(=O)=O)OCCC2 [Compound A1, 3^5-chloro-1^6-methoxy-1^4-(4-methylpiperazin-1-yl)-5^2-(methylsulfonyl)-6-oxa-2,4-diaza-3(2,4)-pyrimidina-1(1,3),5(1,4)-dibenzenacyclononaphane]
ring closure, yield of all isomers ([2]; from COc1cc(N2CCN(C)CC2)c(CCCO)cc1Nc1ncc(Cl)c(Nc2ccc(O)cc2S(C)(=O)=O)n1, DIAD/PPh3, THF, 18.8 mM): 6% | IC50 (EGFR_L858R/T790M/C797S): 5580 nM | ring closure, isolated yield ([3]; from COc1cc(N2CCN(C)CC2)c(CCCO)cc1Nc1ncc(Cl)c(Nc2ccc(O)cc2S(C)(=O)=O)n1, 16-membered ring, PPh3/DIAD, THF, 18.8 mM): 6%

Structure (SMILES): COc1cc(N2CCC(N3CCN(C)CC3)CC2)c2cc1Nc1ncc(Cl)c(n1)Nc1ccc(cc1N(C)S(C)(=O)=O)OCCCC(=O)N2 [Compound A39, N-(3^5-chloro-1^6-methoxy-1^4-(4-(4-methylpiperazin-1-yl)piperidin-1-yl)-10-oxo-6-oxa-2,4,11-triaza-3(2,4)-pyrimidina-1(1,3),5(1,4)-dibenzenacycloundecaphane-5^2-yl)-N-methylmethanesulfonamide]
ring closure, yield of all isomers ([2]; from COc1cc(N2CCC(N3CCN(C)CC3)CC2)c(NC(=O)CCCBr)cc1Nc1ncc(Cl)c(Nc2ccc(O)cc2N(C)S(C)(=O)=O)n1, K2CO3/KI, DMF, 20.0 mM): 4.2% | IC50 (EGFR_L858R/T790M/C797S): 7.1 nM

Structure (SMILES): COc1cc(N2CCC(N(C)C)CC2)c2cc1Nc1ncc(Cl)c(n1)Nc1ccc(cc1N(C)S(C)(=O)=O)OCCCCC2 [Compound A24, N-(3^5-chloro-1^4-(4-(dimethylamino)piperidin-1-yl)-1^6-methoxy-6-oxa-2,4-diaza-3(2,4)-pyrimidina-1(1,3),5(1,4)-dibenzenacycloundecaphane-5^2-yl)-N-methylmethanesulfonamide]
IC50 (EGFR_L858R/T790M/C797S): 2.7 nM | IC50 (EGFR_WT): 10.8 nM | GI50 [1]: 63 nM | IC50 (Ba/F3_WT cell): 3330 nM

These reach a lower IC50 (EGFR_L858R/T790M/C797S). Values come first.

IC50 (EGFR_L858R/T790M/C797S): 0.6 nM | IC50 (EGFR_WT): 14.9 nM | GI50 [1]: 22.4 nM | IC50 (Ba/F3_WT cell): 1690 nM
Structure (SMILES): CCN(c1cc2ccc1Nc1nc(ncc1Br)Nc1cc(c(N3CCC(N4CCN(C)CC4)CC3)cc1OC)CCCCCO2)S(C)(=O)=O [Compound A30, N-(3^5-bromo-1^6-methoxy-1^4-(4-(4-methylpiperazin-1-yl)piperidin-1-yl)-6-oxa-2,4-diaza-3(2,4)-pyrimidina-1(1,3),5(1,4)-dibenzenacycloundecaphane-5^2-yl)-N-ethylmethanesulfonamide]

IC50 (EGFR_L858R/T790M/C797S): 0.5 nM | IC50 (EGFR_WT): 9.2 nM | GI50 [1]: 16.4 nM | IC50 (Ba/F3_WT cell): 1320 nM
Structure (SMILES): COc1cc(N2CCC(N3CCN(C)CC3)CC2)c2cc1Nc1ncc(Br)c(n1)Nc1ccc(cc1N(C)S(C)(=O)=O)OCCCCC2 [Compound A29, N-(3^5-bromo-1^6-methoxy-1^4-(4-(4-methylpiperazin-1-yl)piperidin-1-yl)-6-oxa-2,4-diaza-3(2,4)-pyrimidina-1(1,3),5(1,4)-dibenzenacycloundecaphane-5^2-yl)-N-methylmethanesulfonamide]
ring closure, yield of all isomers ([2]; from COc1cc(N2CCC(N3CCN(C)CC3)CC2)c(CCCCCBr)cc1Nc1ncc(Br)c(Nc2ccc(O)cc2N(C)S(C)(=O)=O)n1, K2CO3/KI, DMF, 10.2 mM): 55% | Tumor Volume ([4]; 5 mg/kg orally once daily, Day 0): 130 mm^3 | Tumor Volume ([4]; 5 mg/kg orally once daily, Day 2): 212 mm^3 | Tumor Volume ([4]; 5 mg/kg orally once daily, Day 4): 279 mm^3 | Tumor Volume ([4]; 5 mg/kg orally once daily, Day 7): 462 mm^3 | Tumor Volume ([4]; 5 mg/kg orally once daily, Day 9): 633 mm^3 | Tumor Volume ([4]; 5 mg/kg orally once daily, Day 11): 819 mm^3 | Tumor Volume ([4]; 5 mg/kg orally once daily, Day 14): 1061 mm^3 | tumor growth inhibition rate TGITV (%) ([4]; 5 mg/kg orally once daily): 68% | Tumor Volume ([4]; 15 mg/kg orally once daily, Day 0): 130 mm^3 | Tumor Volume ([4]; 15 mg/kg orally once daily, Day 2): 171 mm^3 | Tumor Volume ([4]; 15 mg/kg orally once daily, Day 4): 226 mm^3 | Tumor Volume ([4]; 15 mg/kg orally once daily, Day 7): 346 mm^3 | Tumor Volume ([4]; 15 mg/kg orally once daily, Day 9): 469 mm^3 | Tumor Volume ([4]; 15 mg/kg orally once daily, Day 11): 597 mm^3 | Tumor Volume ([4]; 15 mg/kg orally once daily, Day 14): 781 mm^3 | tumor growth inhibition rate TGITV (%) ([4]; 15 mg/kg orally once daily): 76% | Tumor Volume ([4]; 45 mg/kg orally once daily, Day 0): 130 mm^3 | Tumor Volume ([4]; 45 mg/kg orally once daily, Day 2): 147 mm^3 | Tumor Volume ([4]; 45 mg/kg orally once daily, Day 4): 172 mm^3 | Tumor Volume ([4]; 45 mg/kg orally once daily, Day 7): 108 mm^3 | Tumor Volume ([4]; 45 mg/kg orally once daily, Day 9): 78 mm^3 | Tumor Volume ([4]; 45 mg/kg orally once daily, Day 11): 25 mm^3 | Tumor Volume ([4]; 45 mg/kg orally once daily, Day 14): 0 mm^3 | tumor growth inhibition rate TGITV (%) ([4]; 45 mg/kg orally once daily): 100% | tumor growth inhibition (in words) ([4]; all doses (5, 15, 45 mg/kg)): significant tumor growth inhibition | ring closure, isolated yield ([3]; from COc1cc(N2CCC(N3CCN(C)CC3)CC2)c(CCCCCBr)cc1Nc1ncc(Br)c(Nc2ccc(O)cc2N(C)S(C)(=O)=O)n1, 18-membered ring, KI/K2CO3, DMF, 10.2 mM): 55%
